In paper PMC12040169 (PLOS Biology, 2025):

assay: in vitro; conditions: human, hela cells, % viability

Row | SMILES | viability at 28.5 h, 10 µM
1 | COCC(=O)N1CCC(c2cc3nc(C(F)(F)F)ccc3[nH]2)CC1 [CBK282185] | 110%
2 | Cc1nn(C)c(C)c1CN(C)C(=O)C(C)Cn1cc(Cl)cn1 (centres unmarked) [CBK282187] | 92.8%
3 | COCc1ccc(C(=O)NCC2CCCOC2)o1 (centres unmarked) [CBK282188] | 83.3%
4 | CC(C)CN1CC(C(=O)NCc2ccccc2-n2ccnc2)CC1=O (centres unmarked) [CBK282189] | 104%
5 | CC(Cn1cnc2ccccc21)C(=O)N1CCCCC1CN(C)C (centres unmarked) [CBK282191] | 106%
6 | CC1Cc2cc(C(=O)N3CCCCC3CN(C)C)ccc2O1 (centres unmarked) [CBK282193] | 110%
7 | Cc1nc(C)c(C(=O)NCC2CCCOC2)s1 (centres unmarked) [CBK282194] | 97.2%
8 | Cc1cc(CNC(=O)C(C)n2cnc3ccccc32)on1 (centres unmarked) [CBK282196] | 90.7%
9 | Cc1ccn(CCC(=O)NC(C)c2cccnc2)n1 (centres unmarked) [CBK282197] | 97.6%
10 | Cc1nc(SCC(=O)NC(C)c2cccnc2)oc1C (centres unmarked) [CBK282198] | 93.2%
11 | CC(NC(=O)CCn1cncn1)c1cccs1 (centres unmarked) [CBK282199] | 103%
12 | CCc1noc(C)c1C(=O)NCC1CCCCN1CC (centres unmarked) [CBK282201] | 97.3%
13 | CC(C(=O)NCCc1ccncc1)n1cnc2ccccc21 (centres unmarked) [CBK282202] | 103%
14 | CC(NC(=O)c1cc(C(F)(F)F)n(C)n1)c1cccnc1 (centres unmarked) [CBK282203] | 97.6%
15 | CCN1CCCCC1CNC(=O)c1sc(C)nc1C (centres unmarked) [CBK282206] | 90.2%
16 | CCN1CCCCC1CNC(=O)Cn1nc(C)c(C)c1C (centres unmarked) [CBK282208] | 105%
17 | Cc1cc2ccccc2n1CC(=O)N1CCn2cnnc2C1 [CBK282209] | 108%
18 | Cc1nccn1CC(=O)N1CCCC(C)(C(=O)NC2CCCC2)C1 (centres unmarked) [CBK282210] | 91.8%
19 | COCc1nc2ccccc2n1CC(=O)N1CCC(c2ccccc2)C1 (centres unmarked) [CBK282211] | 97.1%
20 | Cc1ccc(C2CCCN2C(=O)C(C)Cn2cncn2)cc1C (centres unmarked) [CBK282213] | 98.9%
21 | Cc1c(C(=O)N(C)CC(F)(F)F)nnn1-c1ccc(F)cc1 [CBK282214] | 89.8%
22 | COc1ccc(OCC2CCN(C(=O)[C@@H]3C[C@@H]4C=C[C@H]3C4)CC2)cc1 [CBK282218] | 93.5%
23 | COc1ccccc1C(=O)N1CCC(c2nc(C)n3ccccc23)C1 (centres unmarked) [CBK282221] | 88.4%
24 | Cc1nc(C)c(CC(=O)N2CCC(Oc3cccc(F)c3)CC2)s1 [CBK282223] | 97.4%

Row | SMILES | viability at 28.5 h, 10 µM
25 | COc1ccccc1CNC(=O)CCn1ccc2ccncc21 [CBK282229] | 91.9%
26 | Cc1ccnn1CCC(=O)N1CCCC1c1cc2cccnc2[nH]1 (centres unmarked) [CBK282230] | 111%
27 | Cc1nn(C)cc1C(=O)N1CCC(c2cc3c(C)cccc3cn2)CC1 [CBK282231] | 103%
28 | CC(=O)NC(c1nccs1)C1CCN(C(=O)C2CC2C)CC1 (centres unmarked) [CBK282232] | 101%
29 | Cc1nc(C2CCN(C(=O)c3cccnc3)CC2)c2sccn12 [CBK282233] | 106%
30 | CCn1nccc1C(=O)N1CCC(c2cc3c(C)cccc3cn2)CC1 [CBK282234] | 92.4%
31 | Cc1nc(C2CCCN(C(=O)c3cscn3)C2)c2sccn12 (centres unmarked) [CBK282236] | 88.2%
32 | CCCC(=O)N1CCC(c2cc3n(n2)[C@@H](C(F)(F)F)C[C@@H](C)N3)C1 (some centres unmarked) [CBK282237] | 99.2%
33 | Cc1nc(C2CCN(C(=O)CCc3ccno3)CC2)c2sccn12 [CBK282239] | 93.1%
34 | Cc1nc(C2CCN(C(=O)CCC3CCCO3)CC2)c2sccn12 (centres unmarked) [CBK282240] | 106%
35 | Cc1nc(C2CCCN(C(=O)C3CCCO3)C2)c2sccn12 (centres unmarked) [CBK282241] | 106%
36 | Cc1ccc(OC(C)C(=O)N2CCCc3c(cnn3C)C2)cc1 (centres unmarked) [CBK282242] | 98.2%
37 | CC(=O)N[C@H](C)Cn1nnc2ccccc21 [CBK282246] | 88%
38 | O=C(NCCc1ccco1)c1ncoc1-c1ccc(F)cc1 [CBK282247] | 104%
39 | CN(CCCNC(=O)c1ncoc1-c1cccs1)c1ccccc1 [CBK282248] | 103%
40 | Cc1noc(C)c1C(=O)N1CCC[C@@H](C(=O)c2ccccc2F)C1 [CBK282249] | 90.5%
41 | O=C(NC1CCCc2c1cnn2Cc1ccccc1)c1ccncc1 (centres unmarked) [CBK282250] | 93.8%
42 | Cn1ncc2c1CCCN(C(=O)Cc1ccc3c(c1)CCCO3)C2 [CBK282253] | 87.8%
43 | CC(=O)N1C[C@H]2CCCN(S(=O)(=O)c3ccc4c(c3)CCC4)[C@H]2C1 [CBK282254] | 87.5%
44 | O=C(C1CC1)N1C[C@H]2CCCN(S(=O)(=O)c3cccs3)[C@H]2C1 [CBK282255] | 105%
45 | O=C(c1cccs1)N1CCOC(Cn2ccnc2)C1 (centres unmarked) [CBK282256] | 103%
46 | CCC(C)C(=O)N1CCC(c2nnc3n2CCCCC3)CC1 (centres unmarked) [CBK282260] | 85.4%
47 | Cn1nccc1CN(Cc1ccc(F)cc1)Cc1cccnc1 [CBK282261] | 101%
48 | CC(Cn1cncn1)C(=O)N1CCCCC1CCc1ccccc1 (centres unmarked) [CBK282265] | 109%

Row | SMILES | viability at 28.5 h, 10 µM
49 | CCOC(=O)Cn1c(-c2cccs2)cc2cccnc21 [CBK282267] | 95.2%
50 | COC(=O)Cn1c(-c2ccc(OC)cc2)cc2cccnc21 [CBK282268] | 82.7%
51 | Fc1ccc(CN2CC3CCCC(C2)C3N2CCOCC2)cc1F (centres unmarked) [CBK282270] | 95.8%
52 | Cn1ccnc1C1(O)CCN(C(=O)NC2CCCCC2)CC1 [CBK282275] | 91.8%
53 | Cn1ccnc1C1(O)CCN(C(=O)NCc2ccccc2)CC1 [CBK282276] | 94.9%
54 | Cn1ccnc1C1(O)CCN(C(=O)Nc2ccccc2F)CC1 [CBK282280] | 112%
55 | O=C(NCc1ccccc1)N1CCC(n2cnc3cccnc32)CC1 [CBK282281] | 100%
56 | c1cnc2[nH]c([C@H]3CCCO3)c(CN3CCCCC3)c2c1 [CBK282284] | 87.7%
57 | O=C(Cn1c([C@@H]2CCCO2)cc2cccnc21)N1CCCCC1 [CBK282286] | 90.3%
58 | c1cnc2c(c1)cc([C@H]1CCCO1)n2CCN1CCCC1 [CBK282289] | 91.9%
59 | CC(=O)Nc1ccc(CCC2(NC(=O)C3CC3)CCCCC2)cn1 [CBK282290] | 87.4%
60 | Cc1nc2cccnc2n1C1CCN(C(=O)NCc2ccccc2)CC1 [CBK282291] | 87.5%
61 | Cn1nc(-c2ccc(F)cc2)n(-c2ccncc2)c1=O [CBK282294] | 96.5%
62 | COc1ccc([C@@H](O)[C@H]2CCCNC2)cc1 [CBK282298] | 86.3%
63 | C[C@]12CN(Cc3ccccc3)C[C@H]1NC(=O)c1ccccc1C2O (some centres unmarked) [CBK282302] | 112%
64 | COCCCNC(=O)Cn1ccc2ccnc(-c3cccs3)c21 [CBK282303] | 109%
65 | CCC(=O)N1CCC[C@@H]1Cn1nc(-c2cccs2)ccc1=O [CBK282304] | 84.8%
66 | C[C@@H](Cn1nnc2ccccc21)NC(=O)Cc1cccc(F)c1 [CBK282306] | 90.8%
67 | Cc1[nH]ncc1C(=O)N1CCn2cc(C(F)(F)F)nc2C1 [CBK282307] | 87.7%
68 | C[C@@H](Cn1nnc2ccccc21)NC(=O)Cc1cccs1 [CBK282312] | 92.8%
69 | O=C1CCCN1CC(=O)N1CCCC1c1nc2ccccc2[nH]1 (centres unmarked) [CBK282315] | 86.3%
70 | Cc1ccc(CCC(=O)N2CCCCC2c2nc3ccccc3[nH]2)o1 (centres unmarked) [CBK282316] | 85.7%
71 | O=c1[nH]c(-c2ccccc2)nc2c1CN(Cc1ccc(F)cc1)CC2 [CBK282329] | 93.3%
72 | O=c1[nH]c(-c2ccccc2)nc2c1CN(Cc1cccs1)CC2 [CBK282330] | 87.1%

Row | SMILES | viability at 28.5 h, 10 µM
73 | Cn1c(=O)n(Cc2ccc(Cl)cc2)c2cccnc21 [CBK282333] | 101%
74 | Cc1noc(C)c1C(=O)N1CCC(c2ccncc2)CC1 [CBK282334] | 110%
75 | CC(C)(C)C(=O)N1CCC(n2nc(-c3ccco3)ccc2=O)CC1 [CBK282341] | 99.3%
76 | CC(C)CC(=O)NCCn1nc(-c2cccs2)oc1=O [CBK282342] | 114%
77 | O=C(NCCn1nc(-c2cccs2)oc1=O)C1CCCCC1 [CBK282343] | 105%
78 | O=C(Cc1cccc(O)c1)N1CCCC1c1nc2ccccc2[nH]1 (centres unmarked) [CBK282346] | 91.9%
79 | CC1CCc2c(sc3ncn(C4CCNCC4)c(=O)c23)C1 (centres unmarked) [CBK282349] | 91.4%
80 | O=C(c1ccco1)N1CCC(n2nc(C3CC3)ccc2=O)CC1 [CBK282350] | 109%
81 | CCOCCCNC(=O)c1ncoc1-c1ccc(F)cc1 [CBK282353] | 92.6%
82 | Cc1cc(C)n(CCNC(=O)c2ncoc2-c2ccc(F)cc2)n1 [CBK282356] | 83.2%
83 | Cc1cc(C)n(CCCNC(=O)c2ncoc2-c2ccc(F)cc2)n1 [CBK282357] | 91.3%
84 | O=C(c1ncoc1-c1ccc(F)cc1)N1CCOCC1 [CBK282362] | 87.1%
85 | Fc1cccc(-c2nc3cnccn3c2NCc2cccs2)c1 [CBK282363] | 97.5%
86 | O=C1NC2=C(C(=O)N(CC3CCCO3)C2)C(c2cccc(F)c2)N1 (centres unmarked) [CBK282364] | 86.1%
87 | Cc1cc2nnn(C[C@@H](C)NC(=O)c3ccco3)c2cc1C [CBK282366] | 100%
88 | CC(=O)N1CCC(n2c(C3CC3)nc3sc(C)c(C)c3c2=O)CC1 [CBK282369] | 85.2%
89 | CC(C)c1ccc(C(=O)N2CCC(n3cnc4cccnc43)CC2)cc1 [CBK282370] | 82.3%
90 | CC(C)NC(=O)C1CCCN(c2nc3ccccc3n2C)C1 (centres unmarked) [CBK282373] | 109%
91 | O=C(C1CCCC1)N1CCCC1c1nc2ccccc2[nH]1 (centres unmarked) [CBK282378] | 88.5%
92 | O=C(c1ncoc1-c1ccc(F)cc1)N1CCSCC1 [CBK282380] | 105%
93 | Cc1cc2ccccc2n2c(=O)n(Cc3cscn3)nc12 [CBK282381] | 102%
94 | C#CCn1cc(CN2CCc3c(nc(C)[nH]c3=O)C2)c2ccccc21 [CBK282382] | 102%
95 | Cc1nc2c(c(=O)[nH]1)CCN(CCC(C)c1ccccc1)C2 (centres unmarked) [CBK282387] | 81%
